In patent US9121067B2, “Predictive marker for EGFR inhibitor treatment” (Hoffmann-La Roche Inc., priority 2007, dated 2015):

Columns and labels:
[1] = system: patients with advanced NSCLC following failure of at least one prior chemotherapy regimen; experiment: open-label Phase II predictive marker study, response assessment by RECIST; format: in vivo, human
Protocol: Based on the experience from the BR.21 study, benefiting population was defined as either having objective response, or disease stabilization for 12 weeks. Clinical and microarray datasets were analyzed according to a pre-defined statistical plan.
This was an open-label, predictive marker identification Phase II study. The study was conducted in approximately 26 sites in about 12 countries. 264 patients with advanced NSCLC following failure of at least one prior chemotherapy regimen were enrolled over a 12 month period. […] Dose reductions were permitted based on tolerability to drug therapy. Clinical and laboratory parameters were assessed to evaluate disease control and toxicity. Treatment continued until disease progression, unacceptable toxicity or death. The study design is depicted in FIG. 1.
The RECIST (Uni-dimensional Tumour Measurement) criteria were used to evaluate response.
To be assigned a status of CR or PR, changes in tumour measurements must be confirmed by repeated assessments at least 4 weeks apart at any time during the treatment period.
In the case of SD, follow-up measurements must have met the SD criteria at least once after study entry at a minimum interval of 6 weeks.
In the case of maintained SD, follow-up measurements must have met the SD criteria at least once after study entry with maintenance duration of at least 12 weeks.

[2] = patients with cancer receiving 150 mg/day; 500 ng/ml is the average plasma concentration targeted for clinical efficacy; cited from earlier work
[3] = system: NSCLC patients for whom standard therapy for advanced disease has failed; conditions: single agent versus placebo; cited from earlier work
[4] = 75 patients with qRT-PCR results
[5] = n = 102, benefit = objective response or disease stabilization for >=12 weeks
[6] = patients included in microarray analysis n = 102, oral 150 mg/day

C#Cc1cccc(Nc2ncnc3cc(OCCOC)c(OCCOC)cc23)c1 [Tarceva, erlotinib]
patients with PD [1, 4]: 52% | patients with SD [1, 4]: 31% | patients with partial response (PR) [1, 4]: 5% | Clinical Benefit NO, n (%) [1, 5]: 81 (79.4%) | Clinical Benefit YES, n (%) [1, 5]: 21 (20.6%) | Best Response PD, n (%) [1, 6]: 49 (48.0%) | Best Response PR, n (%) [1, 6]: 6 (5.9%) | Best Response SD, n (%) [1, 6]: 31 (30.4%) | drug levels in plasma [2]: > 500 ng/mL | survival [3]: significantly prolongs and improves the survival
